Holding throughout (type): physicochemical
The nature of data set [1]: proton relaxivity in plasma (R^1), Minispec P 20. The note with it: 40° C., 0.47 tesla, bovine plasma. The protocol:
As a third criterion, the proton-relaxivity in plasma (R^1) at 40° C. and a field strength of 0.47 tesla is used. The relaxivity, which is indicated in [l/mmol·s], is the quantitative measurement for the shortening of relaxation time T^1 of the protons. For the purpose according to the invention, the relaxivity must be as high as possible and >10 l/mmol·s, preferably >13 l/mmol·s, especially preferably >15 l/mmol·s.
Relaxivity R^1 [l/mmol·s] of the MR-contrast media according to the invention was determined with the Minispec P 20 device of the Bruker Company. The measurements were taken at 40° C. and a field strength of 0.47 tesla. Eight measuring points were recorded by each T1-sequence: 180°-TI-90°, inversion recovery. As a medium, bovine plasma of the Kraeber Company was used. The contrast medium concentrations [mmol/l] in the batches were between 0.30 and 1.16.

Data set [2] is described as follows: hydrodynamic micelle diameter (2 Rh) by photon correlation spectroscopy (PCS). The text has this: The amphiphilic compounds according to the invention are combined in solution and are present as aggregates. The size (2 Rh) of such aggregates (e.g., micelles, rods, wafers, etc.) can be determined with the aid of […] (PCS).
As a second criterion, the hydrodynamic micelle diameter 2 Rh, which must be >1 nm, is therefore used. Those perfluoroalkyl-containing metal complexes according to the invention whose 2 RH is ≧3, quite especially preferably >4 nm, are especially suitable.
(§1) Both the determination of the CMC and the photon correlation spectroscopy are described in H.-D. Dörfler, “Grenzflächen- und Kolloidchemie [Interface and Colloid Chemistry],” Weinheim, New York, Basel, Cambridge, Tokyo, VSH 1994.

Data set [3] is described as follows: critical micelle formation concentration (CMC) by tensiometry. The protocol: In aqueous systems, these amphiphilic molecules show the properties that are characteristic of standard surfactants (such as, e.g., sodium dodecylsulfate, SDS). They thus reduce the surface tension of water. By tensiometry, the so-called CMC (critical micelle formation concentration in mol/l) can be determined. In this respect, the surface tension is determined based on the concentration of the substance to be measured. The CMC can be calculated from the plot of the surface tension function (c) that is obtained. The critical micelle formation concentration of the compounds according to the invention must be <10^−3 mol/l, preferably <10^−4 mol/l.
as §1

Molecules are shown by their SMILES.

In the case of `O=C([O-])CN1CCN(CC(=O)[O-])CCN(CC(O)CNC(=O)COCCC(F)(F)C(F)(F)C(F)(F)C(F)(F)C(F)(F)C(F)(F)C(F)(F)C(F)(F)F)CCN(CC(=O)[O-])CC1.[Gd+3]` (stereo not drawn) [metal complex II, Gadolinium complex of 10-[2-hydroxy-4-aza-5-oxo-7-oxa-10,10,11,11,12,12,13,13,14,14,15,15,16,16,17,17-heptadecafluoroheptadecyl]-1,4,7-tris (carboxymethyl)-1,4,7,10-tetraazacyclododecane], in data set [1], the “R^1 Plasma (relaxivity)” value was 33 mmol⁻¹ s⁻¹. Besides, the “2 Rh (hydrodynamic micelle diameter)” value in data set [2] was 14 nm. Besides, in data set [3], the “CMC (critical micelle formation concentration)” value (from here on “CMC”) worked out at 2.3e-05 mol/L.
Take `CCN(CC(=O)NCC(O)CN1CCN(CC(=O)[O-])CCN(CC(=O)[O-])CCN(CC(=O)[O-])CC1)S(=O)(=O)C(F)(F)C(F)(F)C(F)(F)C(F)(F)C(F)(F)C(F)(F)C(F)(F)C(F)(F)F.[Gd+3]` (stereo not drawn) [metal complex IV, Gadolinium complex of 10-[2-hydroxy-4-aza-5-oxo-7-aza-7-(perfluorooctyl-sulfonyl)-nonyl]-1,4,7-tris (carboxymethyl)-1,4,7,10-tetraazacyclododecane]: in data set [1], the “R^1 Plasma (relaxivity)” value came out at 29.7 mmol⁻¹ s⁻¹. Besides, the “2 Rh (hydrodynamic micelle diameter)” value in data set [2] was determined as 31.5 nm. Further, the “CMC” value in data set [3] turned out to be 1e-06 mol/L.
For `CC(C(=O)NCC(=O)NCCOCCOCCOCCCNC(=O)COCCC(F)(F)C(F)(F)C(F)(F)C(F)(F)C(F)(F)C(F)(F)C(F)(F)C(F)(F)F)N1CCN(CC(=O)[O-])CCN(CC(=O)[O-])CCN(CC(=O)[O-])CC1.[Gd+3]` (stereo not drawn) [metal complex IX] the same measures were 13.3 mmol⁻¹ s⁻¹, 6.0 nm and 2.65e-06 mol/L.
`O=C([O-])CN1CCN(CC(=O)[O-])CCN(CC(O)COCCC(F)(F)C(F)(F)C(F)(F)C(F)(F)C(F)(F)C(F)(F)C(F)(F)C(F)(F)F)CCN(CC(=O)[O-])CC1.[Gd+3]` (stereo not drawn) [metal complex VI, Gadolinium complex of 10-[2-hydroxy-4-oxa-1H,1H,2H,2H,3H,3H,5H,5H,6H,6H-perfluorotetradecyl]-1,4,7-tris(carboxymethyl)-1,4,7,10-tetraazacyclododecane]: the “R^1 Plasma (relaxivity)” value in data set [1] amounted to 27.5 mmol⁻¹ s⁻¹. Moreover, the “2 Rh (hydrodynamic micelle diameter)” value in data set [2] is 3.2 nm. Further, the “CMC” value in data set [3] turned out to be 1.44e-05 mol/L.
In the same order, the values of `CC(C(=O)NCC(=O)N(CCOCCO)CCOCCC(F)(F)C(F)(F)C(F)(F)C(F)(F)C(F)(F)C(F)(F)C(F)(F)C(F)(F)F)N1CCN(CC(=O)[O-])CCN(CC(=O)[O-])CCN(CC(=O)[O-])CC1.[Gd+3]` (stereo not drawn) [metal complex VIII] are 21.2 mmol⁻¹ s⁻¹, 25 nm and 2.92e-05 mol/L.
Take `COCCOCCOCCOCCOCCN(CCOCCC(F)(F)C(F)(F)C(F)(F)C(F)(F)C(F)(F)C(F)(F)C(F)(F)C(F)(F)F)C(=O)CNC(=O)C(C)N1CCN(CC(=O)[O-])CCN(CC(=O)[O-])CCN(CC(=O)[O-])CC1.[Gd+3]` (stereo not drawn) [metal complex VII]: the “R^1 Plasma (relaxivity)” value in data set [1] was 30.3 mmol⁻¹ s⁻¹. Further, in data set [2], the “2 Rh (hydrodynamic micelle diameter)” value was found to be 3.0 nm. In addition, the “CMC” value in data set [3] is 5.2e-05 mol/L.
For `O=C([O-])CN1CCN(CC(=O)[O-])CCN(CC(O)CNC(=O)COCCC(F)(F)C(F)(F)C(F)(F)C(F)(F)C(F)(F)C(F)(F)C(F)(F)C(F)(F)C(F)(F)C(F)(F)F)CCN(CC(=O)[O-])CC1.[Gd+3]` (stereo not drawn) [metal complex XI, Gadolinium complex of 10-[2-hydroxy-4-aza-5-oxo-7-oxa-10,10,11,11,12,12,13,13,14,14,15,15,16,16,17,17,18,18,19,19-henicosafluoro-nonadecyl]-1,4,7-tris(carboxymethyl)-1,4,7,10-tetraazacyclododecane] the same measures were 24.8 mmol⁻¹ s⁻¹, 35.5 nm and 2.88e-06 mol/L.

The values are drawn from US6818203B2, “Use of perfluoroalkyl-containing metal complexes as contrast media in MR-imaging for visualization of plaque, tumors and necroses” (Schering Aktiengesellschaft, priority 2000, dated 2004).
